# Where two headings read alike, the source gives them in different places.
# How the values were obtained:
# [1] = system: Pseudomonas aeruginosa (ATCC 27853); assay: Minimum inhibitory concentration (MIC) assay, Example 33; format: cell-based; settings: Pseudomonas aeruginosa
# Method in brief: (§1)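 CLSI broth microdilution; CAMHB; serial 2-fold dilutions; inoculum 0.5 McFarland (OD600 0.08-0.13), diluted 1:100 as 2× stock, added 1:2; 35° C incubation; MIC read by CLSI criteria.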
# [2] = system: Escherichia coli (ATCC 25922); assay: as above; format: cell-based; settings: Escherichia coli, read-out: MIC E. coli
# Method in brief: as §1
# [3] = Solubility (Sol., Table 1); format: physicochemical
# Pseudomonas aeruginosa = assay: Extended time kill study, Example 34 (0 to 24 h); format: cell-based
# Method: (§2) Time kill studies. Strain suspensions were prepared as described above for the MIC test, and strain suspensions and compound solutions were mixed in the same volume. Samples were removed at specified times including 0 min, 30 sec, 1 min and 5 mins, were diluted in the test medium and streaked on agar. Colonies were counted after 24 to 48 hrs of incubation.
# (§3) The time kill studies of Example 33 were extended for five compounds (Nex-59, Nex-60, Nex-61, Nex-62, and Nex-88) using the same methods at longer time periods and at higher multiples of MIC. Nex-88 is a code number for DDAIP.HCl from a different supplier.
# Candida albicans = assay: Extended time kill study, Example 34 (0 to 24 h); format: cell-based
# Method: as §2, §3
# Aspergillus niger = assay: Extended time kill study, Example 34 (0 to 24 h); format: cell-based
# Method: as §2, §3
smiles,measurement,setting,value
"CCCCCCCCCCCCOC(=O)C(C)NC.Cl (stereo not drawn) [Nex-59, Dodecyl 2-(methylamino)propanoate hydrochloride]",MIC,"[1]; ATCC27853, Table 19 summary, read-out: MIC",3130 µg/mL
same,MIC,"[1]; ATCC27853, n = 1, read-out: MIC P. aeruginosa",3130 µg/mL
same,MIC,"[1]; ATCC27853, n = 2, read-out: MIC P. aeruginosa",3130 µg/mL
same,MIC,"[2]; ATCC25922, n = 1",50 µg/mL
same,MIC,"[2]; ATCC25922, n = 2",50 µg/mL
same,Sol.,[3],33%
same,"Viable counts, Pseudomonas aeruginosa time kill study","Pseudomonas aeruginosa; 1 × MIC, 1 h",<1 Log10 CFU/mL
same,"Viable counts, Pseudomonas aeruginosa time kill study","Pseudomonas aeruginosa; 1 × MIC, 2 h",<1 Log10 CFU/mL
same,"Viable counts, Pseudomonas aeruginosa time kill study","Pseudomonas aeruginosa; 1 × MIC, 4 h",<1 Log10 CFU/mL
same,"Viable counts, Pseudomonas aeruginosa time kill study","Pseudomonas aeruginosa; 1 × MIC, 6 h",<1 Log10 CFU/mL
same,"Viable counts, Pseudomonas aeruginosa time kill study","Pseudomonas aeruginosa; 1 × MIC, 24 h",<1 Log10 CFU/mL
same,"Viable counts, Pseudomonas aeruginosa time kill study","Pseudomonas aeruginosa; 1×MIC, time 0",5.18 Log10 CFU/mL
same,"Viable counts, Pseudomonas aeruginosa time kill study","Pseudomonas aeruginosa; 2 × MIC, 1 h",<1 Log10 CFU/mL
same,"Viable counts, Pseudomonas aeruginosa time kill study","Pseudomonas aeruginosa; 2 × MIC, 2 h",<1 Log10 CFU/mL
same,"Viable counts, Pseudomonas aeruginosa time kill study","Pseudomonas aeruginosa; 2 × MIC, 4 h",<1 Log10 CFU/mL
same,"Viable counts, Pseudomonas aeruginosa time kill study","Pseudomonas aeruginosa; 2 × MIC, 6 h",<1 Log10 CFU/mL
same,"Viable counts, Pseudomonas aeruginosa time kill study","Pseudomonas aeruginosa; 2 × MIC, 24 h",<1 Log10 CFU/mL
same,"Viable counts, Pseudomonas aeruginosa time kill study","Pseudomonas aeruginosa; 2 × MIC, time 0",5.16 Log10 CFU/mL
same,"Viable counts, Pseudomonas aeruginosa time kill study","Pseudomonas aeruginosa; 4 × MIC, 1 h",<1 Log10 CFU/mL
same,"Viable counts, Pseudomonas aeruginosa time kill study","Pseudomonas aeruginosa; 4 × MIC, 2 h",<1 Log10 CFU/mL
same,"Viable counts, Pseudomonas aeruginosa time kill study","Pseudomonas aeruginosa; 4 × MIC, 4 h",<1 Log10 CFU/mL
same,"Viable counts, Pseudomonas aeruginosa time kill study","Pseudomonas aeruginosa; 4 × MIC, 6 h",<1 Log10 CFU/mL
same,"Viable counts, Pseudomonas aeruginosa time kill study","Pseudomonas aeruginosa; 4 × MIC, 24 h",<1 Log10 CFU/mL
same,"Viable counts, Pseudomonas aeruginosa time kill study","Pseudomonas aeruginosa; 4 × MIC, time 0",5.21 Log10 CFU/mL
same,Viable counts in Log10 CFU/mL,"Candida albicans; 1 × MIC, 1 h",5.41 Log10 CFU/mL
same,Viable counts in Log10 CFU/mL,"Candida albicans; 1 × MIC, 2 h",5.24 Log10 CFU/mL
same,Viable counts in Log10 CFU/mL,"Candida albicans; 1 × MIC, 4 h",4.96 Log10 CFU/mL
same,Viable counts in Log10 CFU/mL,"Candida albicans; 1 × MIC, 6 h",4.40 Log10 CFU/mL
same,Viable counts in Log10 CFU/mL,"Candida albicans; 1 × MIC, 24 h",>6 Log10 CFU/mL
same,Viable counts in Log10 CFU/mL,"Candida albicans; 1 × MIC, 0 h",5.68 Log10 CFU/mL
same,Viable counts in Log10 CFU/mL,"Candida albicans; 2 × MIC, 1 h",3.48 Log10 CFU/mL
same,Viable counts in Log10 CFU/mL,"Candida albicans; 2 × MIC, 2 h",3.00 Log10 CFU/mL
same,Viable counts in Log10 CFU/mL,"Candida albicans; 2 × MIC, 4 h",3.00 Log10 CFU/mL
same,Viable counts in Log10 CFU/mL,"Candida albicans; 2 × MIC, 6 h",<2.70 Log10 CFU/mL
same,Viable counts in Log10 CFU/mL,"Candida albicans; 2 × MIC, 24 h",<1 Log10 CFU/mL
same,Viable counts in Log10 CFU/mL,"Candida albicans; 2 × MIC, 0 h",5.75 Log10 CFU/mL
same,Viable counts in Log10 CFU/mL,"Candida albicans; 4 × MIC, 1 h",<3 Log10 CFU/mL
same,Viable counts in Log10 CFU/mL,"Candida albicans; 4 × MIC, 2 h",<3 Log10 CFU/mL
same,Viable counts in Log10 CFU/mL,"Candida albicans; 4 × MIC, 4 h",<2.70 Log10 CFU/mL
same,Viable counts in Log10 CFU/mL,"Candida albicans; 4 × MIC, 6 h",<2.70 Log10 CFU/mL
same,Viable counts in Log10 CFU/mL,"Candida albicans; 4 × MIC, 24 h",<1 Log10 CFU/mL
same,Viable counts in Log10 CFU/mL,"Candida albicans; 4 × MIC, 0 h",5.63 Log10 CFU/mL
same,Viable counts in Log10 CFU/mL,"Aspergillus niger; 1 × MIC, 1 h",5.34 Log10 CFU/mL
same,Viable counts in Log10 CFU/mL,"Aspergillus niger; 1 × MIC, 2 h",5.48 Log10 CFU/mL
same,Viable counts in Log10 CFU/mL,"Aspergillus niger; 1 × MIC, 4 h",5.08 Log10 CFU/mL
same,Viable counts in Log10 CFU/mL,"Aspergillus niger; 1 × MIC, 6 h",5.30 Log10 CFU/mL
same,Viable counts in Log10 CFU/mL,"Aspergillus niger; 1 × MIC, 24 h",3.78 Log10 CFU/mL
same,Viable counts in Log10 CFU/mL,"Aspergillus niger; 1 × MIC, 0 h",5.41 Log10 CFU/mL
same,Viable counts in Log10 CFU/mL,"Aspergillus niger; 2 × MIC, 1 h",5.11 Log10 CFU/mL
same,Viable counts in Log10 CFU/mL,"Aspergillus niger; 2 × MIC, 2 h",4.70 Log10 CFU/mL
same,Viable counts in Log10 CFU/mL,"Aspergillus niger; 2 × MIC, 4 h",4.48 Log10 CFU/mL
same,Viable counts in Log10 CFU/mL,"Aspergillus niger; 2 × MIC, 6 h",3.95 Log10 CFU/mL
same,Viable counts in Log10 CFU/mL,"Aspergillus niger; 2 × MIC, 24 h",<2 Log10 CFU/mL
same,Viable counts in Log10 CFU/mL,"Aspergillus niger; 2 × MIC, 0 h",5.36 Log10 CFU/mL
same,Viable counts in Log10 CFU/mL,"Aspergillus niger; 4 × MIC, 1 h",5.08 Log10 CFU/mL
same,Viable counts in Log10 CFU/mL,"Aspergillus niger; 4 × MIC, 2 h",4.48 Log10 CFU/mL
same,Viable counts in Log10 CFU/mL,"Aspergillus niger; 4 × MIC, 4 h",3.85 Log10 CFU/mL
same,Viable counts in Log10 CFU/mL,"Aspergillus niger; 4 × MIC, 6 h",4.04 Log10 CFU/mL
same,Viable counts in Log10 CFU/mL,"Aspergillus niger; 4 × MIC, 24 h",<2 Log10 CFU/mL
same,Viable counts in Log10 CFU/mL,"Aspergillus niger; 4 × MIC, 0 h",5.29 Log10 CFU/mL

# Reference: patent US20140357713A1, “ANTIMICROBIAL COMPOUNDS AND METHODS OF USE” (NexMed Holdings, Inc., priority 2012, published 2014)
